Results taken from patent US20070277254A1, “Method for Increasing Ploidy in a Plant” (priority 2003, published 2007).
Read-outs that look alike come from different tables or passages of the source.

Columns and labels:
[1] = tested on: apical buds of budded plants; assay: Ploidy increase in buds treated with colchicine, stomata on leaves counted per unit area and compared to the parent; assay type: in vivo; settings: twice daily for five days minimum
Method: Firstly, the plants are budded (on a selected root stock), then they are held in a dormant state and the appropriate chill requirement is given in a cool room (if required). The plants are then removed to a warm environment to prime the bud (which is still dormant). This is continued up to the point at which dormancy is “broken”, cell division is commenced. The bud is then wrapped in absorbent substance, the absorbent material is injected with a 1% aqueous solution of the colchicine drug. Note that this is 10× higher concentration than normal treatments. A plastic surround is used to enclose the bud, to keep it moist but exposed to the drug. This treatment is repeated twice daily for five days minimum.
In a next step, to determine whether a ploidy increase has resulted, the stomata on leaves are counted per unit area and compared to the parent. Unexpectedly, it is observed that between 10-20% of the apical buds have their ploidy level increased as a result of this process (compared with only approx 1% in normal techniques). Thus, for example, in citrus, plant leaves become shorter, thicker, wider and oil glands become more prominent.

[2] = tested on: apical buds of budded plants; settings: normal techniques (comparison; about 10x lower colchicine concentration); cited from earlier work

COc1cc2c(c(OC)c1OC)-c1ccc(OC)c(=O)cc1[C@@H](NC(C)=O)CC2 [colchicine]
apical buds having their ploidy level increased ([1]; 1% aqueous solution of colchicine injected into absorbent wrap around bud at break of dormancy): 10-20%
effect on original growing point (main bud) ([1]; 1% aqueous solution of colchicine): generally killed
apical buds having their ploidy level increased [2]: approx 1%
